Data as given in the Deep4Chem optical property database.
Values joined by “and” are separate entries in the source; they are usually repeats but may differ in a detail not shown here. Equal entries are not always repeated. Values belong to the compound of their own block, whether it stands above or below them.

Assay: solvent given as SMILES
[1] = in O=P(c1ccccc1)(c1ccccc1)c1ccccc1Oc1ccccc1P(=O)(c1ccccc1)c1ccccc1

fluorescence lifetime (in CCCCCC): 5.41 ns
fluorescence lifetime (in CCCCCCCCO): 5.13 ns
fluorescence lifetime (in CCOC(C)=O): 5.3 ns
fluorescence lifetime (in CN(C)C=O): 4.82 ns
SMILES: CC1=CC(C)=[N+]2C1=Cc1c3ccccc3c(C#Cc3ccccc3)n1[B-]2(F)F

fluorescence lifetime (in ClCCl): 1.77 ns
SMILES: Fc1ccc(-c2ccc(-c3cc(-c4ccccn4)nc(-c4ccccn4)c3)cc2)c(F)c1

fluorescence lifetime (in ClCCl): 1.27 ns
SMILES: CC(C)(C)c1ccc2c(c1)c1cc(C(C)(C)C)ccc1n2-c1ccc(C#Cc2ccc3c4ccc(C#Cc5ccc(/C=C(/C#N)C(=O)O)cc5)cc4n(-c4ccc(C(F)(F)F)cc4)c3c2)cc1

fluorescence lifetime (in ClCCl): 1.12 ns
SMILES: CC(C)c1cccc(C(C)C)c1N1C(=O)c2cccc3c(Oc4ccc(C(C)(C)C)cc4)ccc(c23)C1=O

fluorescence lifetime (in C1CCCCC1): 25 ns
fluorescence lifetime (in CC#N): 25.3 ns
fluorescence lifetime (in CO): 26.7 ns
fluorescence lifetime (in ClCCl): 23.2 ns
SMILES: COc1c2ccccc2c(OC)c2c1c1cc(F)ccc1n2C

SMILES: c1ccc(-c2nc(-c3ccccc3)nc(-c3ccc(-n4c5ccccc5c5c6c(ccc54)-c4ccccc4C6(c4ccccc4)c4ccccc4)cc3)n2)cc1
fluorescence lifetime [1]: 3.3 ns

fluorescence lifetime (in ClCCl): 0.41 ns
SMILES: F[B-]1(F)Oc2ccc(Br)cc2-c2c3c(c4c([n+]21)CCc1ccccc1-4)CCc1ccccc1-3

fluorescence lifetime (in CC#N): 5.9 ns
fluorescence lifetime (in c1ccccc1): 11 ns
SMILES: Nc1ccc2c(c1)-c1ccccc1C2=O

fluorescence lifetime (in C1CCCCC1): 0.75 ns
SMILES: CN(C)c1ccc(/C=C/C=C/C=C/c2ccc(B(O)O)cc2)cc1

fluorescence lifetime (in ClC(Cl)Cl): 6.4 ns
SMILES: CCCCCCN1C(=O)C(c2ccc(-c3ccc(-n4c5ccccc5c5ccccc54)cc3)cc2)=C(c2ccc(-c3ccc(-n4c5ccccc5c5ccccc54)cc3)cc2)C1=O
fluorescence lifetime (in c1ccc2c(c1)c1ccccc1n2-c1ccc(-c2ccc(-n3c4ccccc4c4ccccc43)cc2)cc1): 5.5 ns

fluorescence lifetime (in CCC(C)C): 0.61 ns
SMILES: COc1ccsc1-c1ccc(-c2ccc(-c3sccc3OC)s2)s1

fluorescence lifetime (in ClC(Cl)Cl): 4.93 ns
SMILES: CC(C)(C)N1C(=O)c2c(cc3ccc4cccc5ccc2c3c45)C1O (stereo unspecified)

SMILES: Cn1c(/C=C/c2ccc(/C=C/c3nc4ccccc4[nH]3)cc2)[n+](C)c2ccccc21
fluorescence lifetime (in C1CCOC1): 1.43 ns
fluorescence lifetime (in CC#N): 1.16 ns
fluorescence lifetime (in CC(C)=O): 1.15 ns
fluorescence lifetime (in CN(C)C=O): 1.11 ns
fluorescence lifetime (in CO): 0.773 ns
fluorescence lifetime (in CS(C)=O): 1.22 ns
fluorescence lifetime (in O): 0.42 ns

fluorescence lifetime (in CC#N): 9.5 ns
SMILES: CCCCCCCCCC[n+]1cc2ccc3c[n+](CCCCCCCCCC)cc4ccc(c1)c2c34

fluorescence lifetime (in C1CCOC1): 1.09 ns
fluorescence lifetime (in CCCCCC): 8.42 ns
fluorescence lifetime (in c1ccccc1): 8.55 ns
SMILES: O=C1OC(=O)c2ccc(N(c3ccccc3)c3ccc4ccccc4c3)c3cccc1c23

fluorescence lifetime (in CS(C)=O): 0.06 ns
SMILES: CC(=O)Nc1ccc(S(=O)(=O)O)c(/N=N/c2c(O)c3ccccc3n(C)c2=O)c1

SMILES: CC(C)(C)NC1=C2C=CC=[N+]2[B-](F)(F)n2cccc21
fluorescence lifetime (in C1CCCCC1): 6.17 ns
fluorescence lifetime (in CC(C)=O): 0.0272 ns
fluorescence lifetime (in CCO): 0.0307 ns
fluorescence lifetime (in CCOC(C)=O): 0.188 ns
fluorescence lifetime (in CO): 0.019 ns
fluorescence lifetime (in OCC(F)(F)F): 0.125 ns

fluorescence lifetime (in CCO): 6.4 ns
fluorescence lifetime (in ClCCl): 7.2 ns
SMILES: c1ccc2c(-c3cncnc3)c3ccccc3c(-c3cncnc3)c2c1

fluorescence lifetime (in ClCCl): 4.28 ns
SMILES: CCN(CC)c1ccc2c(c1)oc(=O)c1c(C)nc3c(c(-c4ccccc4)nn3C)c12

fluorescence lifetime (in C1CCCCC1): 2.5 ns
SMILES: CN(C)c1ccc2nc(-c3ccc(C=O)cc3)sc2c1

SMILES: COc1ccc(N(c2ccc(OC)cc2)c2cc3ccc4cc(B(c5c(C)cc(C)cc5C)c5c(C)cc(C)cc5C)cc5ccc(c2)c3c45)cc1
fluorescence lifetime (in C1CCOC1): 6.1 ns
fluorescence lifetime (in CC(C)=O): 3.2 ns
fluorescence lifetime (in CCCCCC): 7.7 ns
fluorescence lifetime (in Cc1ccccc1): 8.7 ns
fluorescence lifetime (in ClC(Cl)Cl): 6.5 ns
fluorescence lifetime (in ClCCl): 6.5 ns

SMILES: CCN(CC)c1ccc(C=Cc2nc3nc4ccccc4nc3s2)c(OC)c1
fluorescence lifetime (in CCCCCCC(C)O): 0.977 ns
fluorescence lifetime (in CCOC(C)=O): 0.96 ns
fluorescence lifetime (in CO): 0.04 ns
fluorescence lifetime (in CS(C)=O): 0.41 ns
fluorescence lifetime (in Cc1ccccc1): 0.27 ns
fluorescence lifetime (in ClC(Cl)Cl): 0.97 ns
fluorescence lifetime (in ClCCl): 1.29 ns

fluorescence lifetime (in CC#N): 5.7 ns
SMILES: Cc1c2ccc3c(C)[n+](C)ccc3c2cc[n+]1C

fluorescence lifetime (in CCCO): 5.5 ns
SMILES: c1ccc2c(c1)[nH]c1c3ccccc3[nH]c21

fluorescence lifetime (in ClCCl): 2.67 ns
SMILES: CC(C)(C)c1ccc(-c2c3c(c(-c4ccccc4)c4cc5ccccc5cc24)Cc2c(c(-c4ccccc4)c4cc5ccccc5cc4c2-c2ccc(C(C)(C)C)cc2)C3)cc1

fluorescence lifetime (in CCO): 6.7 ns
SMILES: CCOc1ccc2c(-c3nc(-c4ccccc4)no3)cc(=O)oc2c1

fluorescence lifetime (in ClC(Cl)Cl): 0.564 ns
SMILES: CCCCCCN1C(=O)c2cccc3c(-c4ccc(-c5cccs5)s4)ccc(c23)C1=O

fluorescence lifetime (in ClCCl): 1.73 ns
SMILES: CCOc1cccc2c1O[B-](F)(F)[n+]1c3c(c4c(c1-2)-c1ccccc1CC4)-c1ccccc1CC3

SMILES: Cc1ccc(C)cc1
fluorescence lifetime (in C1CCCCC1): 47 ns

fluorescence lifetime (in ClCCl): 0.416 ns
SMILES: N#Cc1ccc(/C2=C3N=C(C(c4ccccc4)=C/3c3ccccc3)/C(c3ccc(C#N)cc3)=c3\[nH]/c(c(-c4ccccc4)c3-c3ccccc3)=C(/c3ccc(C#N)cc3)C3=N/C(=C(/c4ccc(C#N)cc4)c4[nH]c2c(-c2ccccc2)c4-c2ccccc2)C(c2ccccc2)=C3c2ccccc2)cc1

fluorescence lifetime (in CC#N): 3.28 ns
SMILES: C=Cc1cc2ccc(OC(=O)c3ccccc3)cc2oc1=O

fluorescence lifetime (in ClCCl): 0.94 ns
SMILES: F[B-]1(F)OC(C#Cc2ccccc2)=CC(c2ccccc2)=[O+]1

fluorescence lifetime (in ClC(Cl)Cl): 4.3 ns
SMILES: Cc1ccc(C2=C3C=CC4=[N+]3[P-](=O)(=O)n3c2ccc3-c2ccc([nH]2)/C(c2ccc(C)cc2)=c2/cc/c(o2)=C(\c2ccc(C)cc2)c2ccc4[nH]2)cc1

fluorescence lifetime (in C1CCCCC1): 2.5 ns
SMILES: Oc1ccccc1

fluorescence lifetime (in ClCCl): 2.01 ns
SMILES: c1ccc(N2N=C(c3cccc4ccccc34)CC2c2ccc3ccc4cccc5ccc2c3c45)cc1 (stereo unspecified)

fluorescence lifetime (in ClC(Cl)Cl): 2.5 ns
SMILES: N#CC(C#N)=Cc1ccc(-c2ccc(N(c3ccccc3)c3ccccc3)cc2)s1

SMILES: Cc1ccccc1-c1nc(-c2ccccc2C)nc(-c2ccc(N3c4ccccc4C4(c5ccccc5-c5ccccc54)c4ccccc43)cc2C)n1
fluorescence lifetime [1]: 24 ns

SMILES: CC1(C)c2ccccc2N(c2ccc3c(c2)Oc2ccccc2S3(=O)=O)c2ccccc21
fluorescence lifetime [1]: 29 ns

fluorescence lifetime (in ClCCl): 2.3 ns
SMILES: Cc1ccc(O)c(-c2nc(C)c3n2CCCC3)c1

fluorescence lifetime (in CC#N): 1.16 ns
fluorescence lifetime (in CO): 1.15 ns
fluorescence lifetime (in O): 1.17 ns
SMILES: CSc1ccc2c(c1)N(CCCN(C)C)c1ccccc1S2

fluorescence lifetime (in CC#N): 0.0001 ns
SMILES: O=c1cc[nH]c(=O)[nH]1

fluorescence lifetime (in CC#N): 4.63 ns
fluorescence lifetime (in CO): 1.69 ns
fluorescence lifetime (in O): 1.74 ns
SMILES: Nc1cccc2cn[nH]c12

fluorescence lifetime (in CC#N): 10.2 ns
SMILES: C[n+]1ccc2c(ccc3c[n+](C)c4ccc5ccccc5c4c32)c1

fluorescence lifetime (in CC#N): 5.6 ns
SMILES: Cc1cc(=O)oc2ccc3ccc(O)cc3c12

fluorescence lifetime (in ClCCl): 9.5 ns
SMILES: O=C1c2ccccc2-c2nc3c(F)c(F)c(F)c(F)c3n21

fluorescence lifetime (in ClCCl): 0.85 ns
SMILES: C(=C\c1ccc(-c2ccncc2)cc1)/c1ccc(-c2ccncc2)cc1

fluorescence lifetime (in C1CCCCC1): 0.63 ns
fluorescence lifetime (in C1COCCO1): 0.73 ns
fluorescence lifetime (in CC#N): 1.13 ns
fluorescence lifetime (in CCO): 1.03 ns
fluorescence lifetime (in CS(C)=O): 1.17 ns
fluorescence lifetime (in ClC(Cl)Cl): 0.78 ns
fluorescence lifetime (in ClCCl): 0.87 ns
SMILES: COc1ccc(C#Cc2ccc(C#Cc3ccc(P(=O)(c4ccccc4)c4ccccc4)cc3)cc2)cc1

SMILES: C(=C\c1nc2ccccc2[nH]1)/c1ccc(/C=C/c2nc3ccccc3[nH]2)cc1
fluorescence lifetime (in C1CCOC1): 1.02 ns
fluorescence lifetime (in CC#N): 1.12 ns
fluorescence lifetime (in CC(C)=O): 1.07 ns
fluorescence lifetime (in CN(C)C=O): 0.997 ns
fluorescence lifetime (in CO): 1.06 ns
fluorescence lifetime (in CS(C)=O): 0.919 ns

SMILES: c1coc(-c2nc3ccccc3[nH]2)c1
fluorescence lifetime (in C1CCOC1): 1.47 ns
fluorescence lifetime (in CCCCCC): 1.48 ns
fluorescence lifetime (in CCO): 1.55 ns
fluorescence lifetime (in CCOCC): 1.53 ns
fluorescence lifetime (in CO): 1.58 ns
fluorescence lifetime (in ClC(Cl)Cl): 0.6 ns
fluorescence lifetime (in ClCCl): 1.26 ns
fluorescence lifetime (in O): 1.67 ns

fluorescence lifetime (in ClCCl): 2.96 ns
SMILES: Nc1ccc2c(ccc3[n+]2[B-](F)(F)n2c-3cc3c4ccccc4c4ccccc4c32)c1

fluorescence lifetime (in CC#N): 0.23 ns
fluorescence lifetime (in CCCCCC): 0.2 ns
SMILES: Nc1ccc(/C=C/c2ccc3ccccc3c2)cc1

SMILES: CN(C)c1ccc(-c2c(/C=C3/C=Cc4ccccc4N3C)c(=O)c2=O)cc1
fluorescence lifetime (in C1CCCCC1): 1.54 ns
fluorescence lifetime (in Cc1ccccc1): 2.48 ns
fluorescence lifetime (in ClCCl): 0.15 ns

fluorescence lifetime (in ClC(Cl)Cl): 6 ns
SMILES: CC(C)(C)c1ccc(Oc2cc3c4c(cc(Oc5ccc(C(C)(C)C)cc5)c5c6c(Oc7ccc(C(C)(C)C)cc7)cc7c8c(cc(Oc9ccc(C(C)(C)C)cc9)c(c2c45)c86)C(=O)N(c2ccccc2)C7=O)C(=O)N(c2ccccc2)C3=O)cc1

SMILES: Cc1cc(C(F)(F)F)nc2c1ccc1nc(-c3ccc(F)c(F)c3)cn12
fluorescence lifetime (in CC#N): 8.58 ns
fluorescence lifetime (in CCCCOC(C)=O): 7.28 ns
fluorescence lifetime (in CCOC(C)=O): 7.26 ns
fluorescence lifetime (in CO): 8.3 ns
fluorescence lifetime (in c1ccccc1): 6.69 ns

fluorescence lifetime (in C1CCOC1): 12.4 ns and 20.8 ns
fluorescence lifetime (in C1COCCO1): 15 ns
fluorescence lifetime (in CC#N): 14 ns
fluorescence lifetime (in CCO): 10 ns
fluorescence lifetime (in CN(C)C=O): 22 ns
SMILES: Nc1ccc2c(c1)C(=O)NC2=O

fluorescence lifetime (in CC#N): 0.52 ns
SMILES: c1cc2c3c(cccc3c1)C(N1CCOCCNCCOCCOCC1)=N2

fluorescence lifetime (in C1CCCCC1): 0.59 ns
fluorescence lifetime (in CC#N): 0.52 ns
fluorescence lifetime (in CC(C)O): 0.64 ns
fluorescence lifetime (in CCCCCC): 0.55 ns
fluorescence lifetime (in CCCCCCCCCCCCCCCC): 0.55 ns
fluorescence lifetime (in CCCCCCCCCCCCCCCCCl): 0.59 ns
fluorescence lifetime (in CO): 0.62 ns
SMILES: COC(=O)c1ccc(C#Cc2ccccc2)cc1

SMILES: CC(=O)O[B-]1(OC(C)=O)OC(/C=C/c2cccc3ccccc23)=CC(/C=C/c2cccc3ccccc23)=[O+]1
fluorescence lifetime (in C1CCOC1): 5.75 ns
fluorescence lifetime (in CC#N): 4.5 ns
fluorescence lifetime (in CC(C)=O): 4.67 ns
fluorescence lifetime (in CS(C)=O): 4.24 ns
fluorescence lifetime (in Cc1ccccc1): 5.13 ns
fluorescence lifetime (in ClC(Cl)Cl): 5.73 ns
fluorescence lifetime (in ClCCl): 5.99 ns

fluorescence lifetime (in ClCCl): 37.1 ns
SMILES: CC(C)(C)c1ccc(C#Cc2cc3ccc4cc(C#Cc5ccc(C(C)(C)C)cc5)cc5ccc(c2)c3c45)cc1

fluorescence lifetime (in O): 3.9 ns
SMILES: CCNc1ccc2c(c1)C(C)(C)C(=O)C=C2

fluorescence lifetime (in c1ccccc1): 2.2 ns and 2.6 ns
SMILES: O=c1oc2ccc3ccccc3c2nc1-c1ccccc1

fluorescence lifetime (in ClC(Cl)Cl): 1.4 ns
SMILES: O=C1c2ccc3c4c(NC5CCCCC5)cc5c6c(ccc(c7c(NC8CCCCC8)cc(c2c37)C(=O)N1C1CCCCC1)c64)C(=O)N(C1CCCCC1)C5=O

fluorescence lifetime (in CC#N): 3.72 ns
SMILES: C1=Cc2ccccc2Cc2ccccc21
